{"source": "PubChem BioAssay (NCI)", "experiment_in_all_cases": "NCI-60 cell line screen, 384-well format", "key": {"[1]": {"test_system": "RPMI-8226 leukemia"}, "[2]": {"test_system": "SF-295 CNS"}, "[3]": {"test_system": "NCI-H522 lung"}, "[4]": {"test_system": "SF-539 CNS"}, "[5]": {"test_system": "MOLT-4 leukemia"}, "[6]": {"test_system": "A549 NSCLC"}, "[7]": {"test_system": "SK-OV-3 ovarian"}, "[8]": {"test_system": "MALME-3M melanoma"}, "[9]": {"test_system": "PC-3 prostate"}, "[10]": {"test_system": "HOP-62 NSCLC"}, "[11]": {"test_system": "CAKI-1 renal"}, "[12]": {"test_system": "IGROV1 ovarian"}, "[13]": {"test_system": "COLO 205 colon"}, "[14]": {"test_system": "TK-10 renal"}, "[15]": {"test_system": "NCI-H322M lung"}, "[16]": {"test_system": "HCT-116 colon"}, "[17]": {"test_system": "MDA-MB-468 breast"}, "[18]": {"test_system": "KM12 colon"}, "[19]": {"test_system": "NCI/ADR-RES ovarian"}, "[20]": {"test_system": "BT-549 breast"}, "[21]": {"test_system": "HT29 colon"}, "[22]": {"test_system": "NCI-H460 NSCLC"}, "[23]": {"test_system": "NCI-H23 lung"}, "[24]": {"test_system": "HL-60(TB) leukemia"}, "[25]": {"test_system": "SN12C renal"}, "[26]": {"test_system": "OVCAR-4 ovarian"}, "[27]": {"test_system": "OVCAR-8 ovarian"}, "[28]": {"test_system": "HS 578T breast"}, "[29]": {"test_system": "OVCAR-3 ovarian"}, "[30]": {"test_system": "U251 glioblastoma"}, "[31]": {"test_system": "LOX IMVI melanoma"}, "[32]": {"test_system": "MDA-MB-231 breast"}, "[33]": {"test_system": "SR leukemia"}, "[34]": {"test_system": "ACHN renal"}, "[35]": {"test_system": "SNB-75 CNS"}, "[36]": {"test_system": "OVCAR-5 ovarian"}, "[37]": {"test_system": "T-47D breast"}, "[38]": {"test_system": "A498 renal"}, "[39]": {"test_system": "SK-MEL-2 melanoma"}, "[40]": {"test_system": "UACC-257 melanoma"}, "[41]": {"test_system": "SK-MEL-28 melanoma"}, "[42]": {"test_system": "UACC-62 melanoma"}, "[43]": {"test_system": "SF-268 CNS"}, "[44]": {"test_system": "SNB-19 CNS"}, "[45]": {"test_system": "HOP-92 NSCLC"}, "[46]": {"test_system": "M14 melanoma"}, "[47]": {"test_system": "SK-MEL-5 melanoma"}}, "note": "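Here, GI50 denotes the concentration required for 50% inhibition of growth. At the TGI there is no net growth.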", "data": [{"smiles": "Nc1nc2cc(-c3ccc4ncc(C(=O)N5CCOCC5)n4c3)ccc2o1", "values": [{"measurement": "GI50", "setting": "[1]", "result": 1580, "unit": "nM"}, {"measurement": "TGI", "setting": "[1]", "result": 4.55, "unit": "µM"}, {"measurement": "TGI", "setting": "[2]", "result": "> 95.1", "unit": "µM"}, {"measurement": "GI50", "setting": "[3]", "result": 4.05, "unit": "µM"}, {"measurement": "TGI", "setting": "[3]", "result": "> 74.5", "unit": "µM"}, {"measurement": "GI50", "setting": "[4]", "result": "> 60.9", "unit": "µM"}, {"measurement": "TGI", "setting": "[4]", "result": "> 100", "unit": "µM"}, {"measurement": "GI50", "setting": "[5]", "result": 3.45, "unit": "µM"}, {"measurement": "TGI", "setting": "[5]", "result": 19.9, "unit": "µM"}, {"measurement": "GI50", "setting": "[6]", "result": 9.11, "unit": "µM"}, {"measurement": "TGI", "setting": "[6]", "result": "> 100", "unit": "µM"}, {"measurement": "GI50", "setting": "[7]", "result": 2090, "unit": "nM"}, {"measurement": "TGI", "setting": "[7]", "result": 12.3, "unit": "µM"}, {"measurement": "GI50", "setting": "[8]", "result": 2780, "unit": "nM"}, {"measurement": "TGI", "setting": "[8]", "result": "> 68.5", "unit": "µM"}, {"measurement": "GI50", "setting": "[9]", "result": 5.45, "unit": "µM"}, {"measurement": "TGI", "setting": "[9]", "result": "> 100", "unit": "µM"}, {"measurement": "GI50", "setting": "[10]", "result": "> 26.4", "unit": "µM"}, {"measurement": "TGI", "setting": "[10]", "result": "> 100", "unit": "µM"}, {"measurement": "GI50", "setting": "[11]", "result": 6.74, "unit": "µM"}, {"measurement": "TGI", "setting": "[11]", "result": "> 100", "unit": "µM"}, {"measurement": "GI50", "setting": "[12]", "result": 1850, "unit": "nM"}, {"measurement": "TGI", "setting": "[12]", "result": 5.23, "unit": "µM"}, {"measurement": "GI50", "setting": "[13]", "result": 10.2, "unit": "µM"}, {"measurement": "TGI", "setting": "[13]", "result": "> 100", "unit": "µM"}, {"measurement": "GI50", "setting": "[14]", "result": 5.17, "unit": "µM"}, {"measurement": "TGI", "setting": "[14]", "result": 53.7, "unit": "µM"}, {"measurement": "GI50", "setting": "[15]", "result": 6.17, "unit": "µM"}, {"measurement": "TGI", "setting": "[15]", "result": "> 100", "unit": "µM"}, {"measurement": "GI50", "setting": "[16]", "result": 5.23, "unit": "µM"}, {"measurement": "TGI", "setting": "[16]", "result": "> 100", "unit": "µM"}, {"measurement": "GI50", "setting": "[17]", "result": 3.93, "unit": "µM"}, {"measurement": "TGI", "setting": "[17]", "result": "> 92.3", "unit": "µM"}, {"measurement": "GI50", "setting": "[18]", "result": 28.7, "unit": "µM"}, {"measurement": "TGI", "setting": "[18]", "result": "> 100", "unit": "µM"}, {"measurement": "GI50", "setting": "[19]", "result": "> 100", "unit": "µM"}, {"measurement": "TGI", "setting": "[19]", "result": "> 100", "unit": "µM"}, {"measurement": "GI50", "setting": "[20]", "result": 23.7, "unit": "µM"}, {"measurement": "TGI", "setting": "[20]", "result": "> 100", "unit": "µM"}, {"measurement": "GI50", "setting": "[21]", "result": 8.1, "unit": "µM"}, {"measurement": "TGI", "setting": "[21]", "result": "> 100", "unit": "µM"}, {"measurement": "GI50", "setting": "[22]", "result": 2770, "unit": "nM"}, {"measurement": "TGI", "setting": "[22]", "result": "> 100", "unit": "µM"}, {"measurement": "GI50", "setting": "[23]", "result": 5.59, "unit": "µM"}, {"measurement": "TGI", "setting": "[23]", "result": "> 100", "unit": "µM"}, {"measurement": "GI50", "setting": "[24]", "result": 5.36, "unit": "µM"}, {"measurement": "TGI", "setting": "[24]", "result": "> 78", "unit": "µM"}, {"measurement": "GI50", "setting": "[25]", "result": 7.67, "unit": "µM"}, {"measurement": "TGI", "setting": "[25]", "result": "> 100", "unit": "µM"}, {"measurement": "GI50", "setting": "[26]", "result": "> 40.7", "unit": "µM"}, {"measurement": "TGI", "setting": "[26]", "result": "> 100", "unit": "µM"}, {"measurement": "GI50", "setting": "[27]", "result": "> 78.2", "unit": "µM"}, {"measurement": "TGI", "setting": "[27]", "result": "> 100", "unit": "µM"}, {"measurement": "GI50", "setting": "[28]", "result": 6.07, "unit": "µM"}, {"measurement": "TGI", "setting": "[28]", "result": 66.2, "unit": "µM"}, {"measurement": "GI50", "setting": "[29]", "result": 7.73, "unit": "µM"}, {"measurement": "TGI", "setting": "[29]", "result": "> 100", "unit": "µM"}, {"measurement": "GI50", "setting": "[30]", "result": "> 74.7", "unit": "µM"}, {"measurement": "TGI", "setting": "[30]", "result": "> 100", "unit": "µM"}, {"measurement": "GI50", "setting": "[31]", "result": 19.5, "unit": "µM"}, {"measurement": "TGI", "setting": "[31]", "result": "> 100", "unit": "µM"}, {"measurement": "GI50", "setting": "[32]", "result": 9.02, "unit": "µM"}, {"measurement": "TGI", "setting": "[32]", "result": "> 100", "unit": "µM"}, {"measurement": "GI50", "setting": "[33]", "result": 12.2, "unit": "µM"}, {"measurement": "TGI", "setting": "[33]", "result": "> 100", "unit": "µM"}, {"measurement": "GI50", "setting": "[34]", "result": 8.58, "unit": "µM"}, {"measurement": "TGI", "setting": "[34]", "result": "> 100", "unit": "µM"}, {"measurement": "GI50", "setting": "[35]", "result": 10.2, "unit": "µM"}, {"measurement": "TGI", "setting": "[35]", "result": "> 75", "unit": "µM"}, {"measurement": "GI50", "setting": "[36]", "result": 7.68, "unit": "µM"}, {"measurement": "TGI", "setting": "[36]", "result": "> 100", "unit": "µM"}, {"measurement": "GI50", "setting": "[37]", "result": 574, "unit": "nM"}, {"measurement": "TGI", "setting": "[37]", "result": 3.14, "unit": "µM"}, {"measurement": "GI50", "setting": "[38]", "result": 5.93, "unit": "µM"}, {"measurement": "TGI", "setting": "[38]", "result": "> 100", "unit": "µM"}, {"measurement": "GI50", "setting": "[39]", "result": 30, "unit": "µM"}, {"measurement": "TGI", "setting": "[39]", "result": "> 100", "unit": "µM"}, {"measurement": "GI50", "setting": "[40]", "result": "> 100", "unit": "µM"}, {"measurement": "TGI", "setting": "[40]", "result": "> 100", "unit": "µM"}, {"measurement": "GI50", "setting": "[41]", "result": "> 57.6", "unit": "µM"}, {"measurement": "TGI", "setting": "[41]", "result": "> 100", "unit": "µM"}, {"measurement": "GI50", "setting": "[42]", "result": 66.4, "unit": "µM"}, {"measurement": "TGI", "setting": "[42]", "result": "> 100", "unit": "µM"}, {"measurement": "GI50", "setting": "[43]", "result": 35.1, "unit": "µM"}, {"measurement": "TGI", "setting": "[43]", "result": "> 100", "unit": "µM"}, {"measurement": "GI50", "setting": "[44]", "result": "> 73.8", "unit": "µM"}, {"measurement": "TGI", "setting": "[44]", "result": "> 100", "unit": "µM"}, {"measurement": "GI50", "setting": "[45]", "result": 2200, "unit": "nM"}, {"measurement": "TGI", "setting": "[45]", "result": 18.5, "unit": "µM"}, {"measurement": "GI50", "setting": "[46]", "result": 11.6, "unit": "µM"}, {"measurement": "TGI", "setting": "[46]", "result": "> 100", "unit": "µM"}, {"measurement": "GI50", "setting": "[47]", "result": 5.97, "unit": "µM"}, {"measurement": "TGI", "setting": "[47]", "result": "> 59.6", "unit": "µM"}]}]}
